Test [1] relates to ptc1+/− medulloblastoma precursor cells (neurosphere cultures). Description: Medulloblastoma tumor sphere MTT proliferation EC50. In kind it is cell-based, mouse. The source says:
(§1) Astrocyte Screen and Neurosphere Selectivity Assessment. […] Murine Medulloblastoma Generation and Culture. […] Flow Cytometry. […] Results

Test [2] has as its system Ptch1+/− Trp53−/− medulloblastoma neurosphere cultures. Description: Tumor sphere MTT proliferation EC50. As to conditions: read-out: Ptch1+/− Trp53−/− neurosphere EC50. In kind it is cell-based, mouse.
Excerpt: as §1

The test system of test [3] is murine neural precursor cells (neurosphere cultures). In words: HTS of LOPAC library against secondary neurosphere cultures, MTT proliferation assay at 3 μM, day 7 (z score, P value). In kind it is cell-based, mouse. As to conditions: for Z Score: LOPAC library screen, MTT, secondary neurosphere cultures. A general note: Tetrazolium assays rely on reduction of a dye to a coloured formazan, in cell work by metabolically active cells.

Test [4] deals with mouse NSC neurosphere cultures. In words: Dose-response curves and EC50, neurosphere MTT proliferation, 7 days. It is filed as cell-based.
For test [5], the system named is hGBM1 precursors (WHO grade IV GBM). Description: Human glioblastoma precursor EC50 (hGBM1). In kind it is cell-based.
Test [6] concerns neural precursors derived from human fetal CNS tissue (hFetal). In words: Human fetal neural precursor EC50. It is filed as cell-based.
Test [7] relates to hGBM2 precursors (WHO grade IV GBM, giant cell variant). In words: Human glioblastoma precursor EC50 (hGBM2). In kind it is cell-based.
Where [8] appears, read: Mus musculus, ptc1+/− medulloblastoma derived neurospheres, read-out: Medulloblastoma Neurosphere EC50.
The mark [9] stands for this setting: cultures derived from mouse cerebellar tumor samples, read-out: Ptch1+/− neurosphere EC50.
[10] abbreviates: cultures derived from mouse cerebellar tumor samples.
Setting [11] is: 168 h, normal mouse neurosphere cultures, MTT, 7 days, read-out: Neurosphere EC50.
Where [12] appears, read: Mus musculus, read-out: EC 50% Neurosphere, Table 5.
Setting [13] is: Mus musculus, Table 8, read-out: Neurosphere EC50.
The mark [14] stands for this setting: ptc1+/− medulloblastoma derived neurospheres, read-out: Medulloblastoma Neurosphere EC50.
Where [15] appears, read: Table 8, read-out: Neurosphere EC50.
Setting [16] is: normal mouse neurosphere cultures, MTT, 7 days, read-out: Neurosphere EC50.
[17] abbreviates: read-out: EC 50% Neurosphere, Table 5.
[18] abbreviates: LOPAC primary screen, neurosphere MTT proliferation, 3 μM, day 7.
[19] abbreviates: yes/no: significantly inhibited neurosphere proliferation (P<0.01) in the primary screen.

Read-outs that look alike come from different tables or passages of the source.

With `C[C@@H]1C[C@@H]([C@H](O)CC2CC(=O)NC(=O)C2)C(=O)[C@@H](C)C1` [Cycloheximide (1), Cycloheximide], the EC50 in test [1] (Mus musculus, read-out: Medulloblastoma Neurosphere EC50) amounted to 42 nM; in test [1] (Mus musculus, read-out: Ptch1+/− neurosphere EC50), 42 nM; in test [2] (Mus musculus) it was 54 nM.

As to `CC(C)(C)[C@]1(O)CCN2C[C@H]3c4ccccc4CCc4cccc(c43)[C@@H]2C1` (racemic) [(±) Butaclamol (4), (±)-Butaclamol], in test [3], the Activity result is given as “yes”. In addition, the Z score in test [3] (168 h, 3 µM) was −5.934. In addition, the EC50 in test [1] (setting [8]) amounted to 751 nM; in test [1] (setting [9]) it was 751 nM; in test [2] (setting [10]), 2530 nM; in test [4] (setting [11]), 785 nM; in test [4] (setting [12]) it was 785 nM; in test [4] (setting [13]), 785 nM.

Turning to `O[Si](CCCN1CCCCC1)(c1ccc(F)cc1)C1CCCCC1` (stereo not shown) [p-F-HHSiD (8), p-fluoro-hexahydrosila-difenidol], the EC50 in test [5] was determined as 12600 nM; in test [1] (setting [9]) it was 1120 nM; in test [1] (setting [14]), 1120 nM; in test [2] (setting [10]), 1370 nM; in test [6] it was 10600 nM; in test [4] (setting [15]) it was 441 nM. Further, the EC50 is 441 nM in test [4] (setting [16]), 441 nM in test [4] (setting [17]) and 1230 nM in test [7].

As to `CCN(CC)CCOCCOC(=O)C1(c2ccccc2)CCCC1` [Carbetapentane (10), Carbetapentane], the “Z Score” value in test [3] (3 μM, day 7) is listed as −8.021. Moreover, the Z score in test [3] (setting [18]) is reported as −8.021. Moreover, the Activity result in test [3] (setting [19]) is recorded as “yes”. The EC50 in test [5] (Homo sapiens) was found to be 5440 nM; in test [1] (setting [8]), 2080 nM; in test [1] (setting [9]) it was 2080 nM; in test [4] (setting [11]), 756 nM; in test [4] (setting [12]) it was 756 nM; in test [4] (setting [13]), 756 nM. For the same molecule, the EC50 in test [7] (Homo sapiens) came out at 1730 nM.

Take `COc1cc(CNC(=O)CCCCCCC(C)C)ccc1O` [Dihydrocapsaicin (15), Dihydrocapsaicin]: the “Z Score” value in test [3] (3 μM, day 7) was −10. Also, the Z score in test [3] (setting [18]) was −10.003. Moreover, the Activity result in test [3] (setting [19]) is “yes”. The EC50 in test [5] (Homo sapiens) came to 88600 nM; in test [1] (setting [8]) it was 20 nM; in test [1] (setting [9]), 20 nM; in test [7] (Homo sapiens), 21500 nM.

Consider `COc1cc([C@@H]2c3cc4c(cc3[C@@H](O[C@@H]3O[C@@H]5CO[C@@H](C)O[C@H]5[C@H](O)[C@H]3O)[C@H]3COC(=O)[C@H]23)OCO4)cc(OC)c1O` [Etoposide (2), Etoposide], for which the “Z Score” value in test [3] (3 μM, day 7) is −11.1. Besides, the Z score in test [3] (setting [18]) is given as −11.102. In addition, the Activity result in test [3] (setting [19]) was “yes”. The EC50 in test [5] (Homo sapiens) amounted to 620 nM; in test [1] (setting [8]), 208 nM; in test [1] (setting [9]), 208 nM; in test [6], 160 nM; in test [4] (setting [11]), 340 nM; in test [4] (setting [12]), 340 nM. Further, the EC50 in test [4] (setting [13]) was 340 nM; in test [7] (Homo sapiens) it was 270 nM.

Consider `Cl.Cl.OCCN1CCN(CC/C=C2/c3ccccc3Sc3ccc(C(F)(F)F)cc32)CC1` [cis-(Z)-Flupenthixol (7), cis-(Z)-Flupenthixol], for which, in test [3] (3 μM, day 7), the “Z Score” value is recorded as −8.822. For the same molecule, in test [3] (setting [18]), the Z score is on record as −8.822. In test [3] (setting [19]), the Activity entry is reported as “yes”. Also, the EC50 in test [1] (setting [9]) worked out at 187 nM; in test [1] (setting [14]) it was 187 nM; in test [4] (setting [15]), 199 nM; in test [4] (setting [16]), 199 nM; in test [4] (setting [17]) it was 199 nM.

On to `N.N.O=C([O-])C1(C(=O)[O-])CCC1.[Pt+2]` [Carboplatin (3), Carboplatin], for which the “Z Score” value in test [3] (3 μM, day 7) is −6.204. For the same molecule, in test [3] (setting [18]), the Z score is recorded as −6.204. The Activity result in test [3] (yes = significantly inhibited neurosphere proliferation (P<0.01) in the primary screen) is “yes”. Besides, the EC50 in test [5] is 2040 nM; in test [1] (setting [9]), 196 nM; in test [1] (setting [14]), 196 nM; in test [6] it was 430 nM; in test [4] (setting [15]), 489 nM; in test [4] (setting [16]) it was 489 nM. In addition, the EC50 came out at 489 nM in test [4] (setting [17]) and 3300 nM in test [7].

The values are drawn from patent US8058243B2, “Method for treating a brain cancer with ifenprodil” (HSC Research and Development Limited Partnership, priority 2006, dated 2011).
